Reference: PMC9065678, “BI 1015550 is a PDE4B Inhibitor and a Clinical Drug Candidate for the Oral Treatment of Idiopathic Pulmonary Fibrosis” (Frontiers in Pharmacology, 2022)

Legend:
PDE4C = biological target: T1, PDE4C (Homo sapiens, UniProt Q08493); assay: Recombinant PDE activity, scintillation proximity assay: PDE4C; assay type: biochemical; conditions: substrate [3H]cAMP, means from n independent experiments, read-out: IC50 PDE4C2
T1 construct: made in house; host or cells: SF9 insect cells (baculovirus, Bac-To-Bac, pFastbac)
Procedure: For the preparation of human recombinant PDEs of interest, the Bac-To-Bac baculoviral expression system from Invitrogen (Carlsbad, CA, United States) was used according to the instruction manual. […] The plasmids were transformed into DH10Bac bacteria, SF9 insect cells were transfected with the bacmid DNA, and the resulting baculoviruses were stored and used for further rounds of infections. For protein production, SF9 cells were infected until a cytopathic effect was visible (after about 72 h), the SF9 cells were harvested and broken up by 3 freeze/thaw cycles, and by shearing 10 times through a 0.1 mm cannula using a syringe. […] The Phosphodiesterase Scintillation Proximity Assays (TRKQ7090 for [^3H]cAMP, GE Healthcare Europe GmbH, Chalfont St Giles, United Kingdom, and TRKQ7100 for [^3H]cGMP, Perkin Elmer, Waltham, MA, United States) were performed essentially according to the instruction manual. […] Assay solutions containing recombinant baculoviral-expressed PDE (to give an activity of 5.000–20.000 cpm corresponding to 5–20% of total activity added), 50 mmol/L Tris/HCl pH 7.5, 8.3 mmol/L MgCl2, 1.7 mmol/L EGTA, and 10 µL radiolabeled substrate (0.05 µCi in H2O) were incubated for 1 h at 30°C (final volume 100 μL).

PDE7A = biological target: T2, PDE7A (Homo sapiens, UniProt Q13946); assay: Recombinant PDE activity, scintillation proximity assay: PDE7A; assay type: biochemical; conditions: calculated IC50
T2 construct: made in house; host or cells: SF9 insect cells (baculovirus, Bac-To-Bac, pFastbac)
Description: For the preparation of human recombinant PDEs of interest, the Bac-To-Bac baculoviral expression system from Invitrogen (Carlsbad, CA, United States) was used according to the instruction manual. In short, the full-length open reading frames of PDE1C (National Center for Biotechnology Information Gene-Ref-Seq identifier NG_051183), PDE3A (NG_030033), PDE4A (NG_029594, AA 156–886), PDE4C (NG_029629), PDE7A (NG_029614), and PDE9A (NG_047067) were cloned into the plasmid vector pFastbac. For PDE4B and PDE4D, active site fragments were used (PDE4B NG_029038: AA 152–484, PDE4D NG_027957, AA 79–438). The plasmids were transformed into DH10Bac bacteria, SF9 insect cells were transfected with the bacmid DNA, and the resulting baculoviruses were stored and used for further rounds of infections. […] The protein content was measured and an equal volume of 87% (v/v) glycerol was added prior to freezing at −20°C. […] The reaction was stopped by addition of 50 µL of yttrium silicate scintillation proximity assay beads (17.8 mg/mL, 18 mM zinc sulfate in H2O) and the amount of produced [^3H]AMP/[^3H]GMP associated was determined using a Wallac Microbeta scintillation counter. […]

[1] = test system: LPS-induced neutrophil influx into the BALF; assay: LPS-induced neutrophil influx into the BALF of Suncus murinus; assay type: in vivo
Description: (§1) Compared with other animal species used to study emesis induction by PDE4 inhibitors, like ferrets, dogs, minipigs, or monkeys, Suncus murinus allows the testing of a sufficient number of animals to provide a high statistical power. […] Male Suncus murinus (weight 50–55 g) from Boehringer Ingelheim (Biberach an der Riss, Germany) or male Wistar rats (200–250 g, Charles River), eight animals per group, were used. […] For this purpose, animals in the positive control and treatment groups were put into a circular Plexiglas chamber with 16 pie-like compartments for one animal each, and were consecutively exposed to nebulized LPS for 30 min. The LPS solution used for nebulization contained 1 mg/mL LPS in phosphate-buffered saline (PBS). Nebulization was performed with the commercially available PARI Master® nebulizer with a PARI Master® LL adapter (Pari GmbH, Starnberg, Germany). 4 h after LPS exposure, the animals were anesthetized and euthanized by cervical dislocation. After sacrifice, the trachea was cannulated and bronchoalveolar lavage was performed by instilling and re-aspirating two-times 1 mL (Suncus murinus) or 5 mL (rat) lavage buffer (PBS +2% bovine serum albumin). BALF volumes were recorded manually. Determination of neutrophil numbers in BALF was performed using a blood hemacytometer (Sysmex XT-1800i, Kobe, Japan).

[2] = test system: LPS-induced lung neutrophil influx; assay: LPS-induced lung neutrophil influx in male Wistar rats; assay type: in vivo, rat; conditions: oral, data not shown
Description: as §1

T2 sequence (Q13946 whole entry): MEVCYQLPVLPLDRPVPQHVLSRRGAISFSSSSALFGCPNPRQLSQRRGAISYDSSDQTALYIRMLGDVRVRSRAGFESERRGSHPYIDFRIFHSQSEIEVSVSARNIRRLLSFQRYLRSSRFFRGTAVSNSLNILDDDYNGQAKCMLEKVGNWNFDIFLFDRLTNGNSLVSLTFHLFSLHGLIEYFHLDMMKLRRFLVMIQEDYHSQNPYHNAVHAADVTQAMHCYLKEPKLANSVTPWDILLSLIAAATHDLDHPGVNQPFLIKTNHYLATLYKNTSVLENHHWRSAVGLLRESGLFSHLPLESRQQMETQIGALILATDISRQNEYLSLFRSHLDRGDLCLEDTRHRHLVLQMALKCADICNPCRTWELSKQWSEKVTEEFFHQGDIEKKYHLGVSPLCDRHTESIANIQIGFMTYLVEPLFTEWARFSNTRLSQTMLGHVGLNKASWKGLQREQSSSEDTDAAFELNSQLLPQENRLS
T1 sequence (Q08493 107-712): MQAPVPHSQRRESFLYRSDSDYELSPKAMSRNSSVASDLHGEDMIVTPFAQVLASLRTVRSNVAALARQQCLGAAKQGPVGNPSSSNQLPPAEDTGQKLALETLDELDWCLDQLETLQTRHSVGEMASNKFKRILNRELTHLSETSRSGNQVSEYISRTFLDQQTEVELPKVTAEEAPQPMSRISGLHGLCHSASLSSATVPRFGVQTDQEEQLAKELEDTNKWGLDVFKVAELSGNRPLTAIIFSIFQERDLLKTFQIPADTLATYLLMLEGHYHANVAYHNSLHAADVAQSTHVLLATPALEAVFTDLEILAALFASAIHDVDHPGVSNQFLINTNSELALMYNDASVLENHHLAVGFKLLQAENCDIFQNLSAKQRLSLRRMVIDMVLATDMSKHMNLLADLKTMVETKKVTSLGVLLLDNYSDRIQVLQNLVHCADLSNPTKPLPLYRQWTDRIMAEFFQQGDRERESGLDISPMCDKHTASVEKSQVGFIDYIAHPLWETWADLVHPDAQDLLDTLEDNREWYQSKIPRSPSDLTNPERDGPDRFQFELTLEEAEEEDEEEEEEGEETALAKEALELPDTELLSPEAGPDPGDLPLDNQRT

[O-][S+]1CCc2nc(N3CCC(c4ncc(Cl)cn4)CC3)nc(NC3(CO)CCC3)c21 (stereo not shown) [BI 1015550]
IC50 (PDE4C): 8.7 µM | IC50 (PDE7A): 14 µM | Neutrophils in BALF, inhibition in % given as negative number ([1]; 0.1 mg/kg p.o.): −23% | Neutrophils in BALF, inhibition in % given as negative number ([1]; 0.3 mg/kg p.o.): −36% | Neutrophils in BALF, inhibition in % given as negative number ([1]; 1.0 mg/kg p.o.): −59% | ED50 LPS-induced BALF neutrophils ([1]; oral, 30 min before nebulized LPS): 0.6 mg/kg | ED50 LPS-induced lung neutrophil influx [2]: 0.1 mg/kg
